Consider twelve molecules from patent US20210347785A1, “PREPARATION AND APPLICATION OF AROMATIC COMPOUND HAVING IMMUNOREGULATORY FUNCTION” (SHANGHAI ENNOVABIO PHARMACEUTICALS CO., LTD., priority 2018, published 2021).

For the test, the target named is T1, PD-1/PD-L1 (Homo sapiens, UniProt Q9NZQ7).
T1 construct: purchased Cisbio 63ADK000CPDEC
Put plainly: PD-1/PD-L1 homogeneous time-resolved fluorescence (HTRF) binding assay. The note with it: 665 nm/620 nm ratio. From the text:
Test Example 1: Detect the Inhibitory Effect of the Compound to the Binding of PD-1/PD-L1 Protein
The PD-1/PD-L1 homogeneous time-resolved fluorescence method is used to detect the binding ability of the compound with PD-L1.
PD-1/PD-L1 binding assay kit (Cisbio, Cat #63ADK000CPDEC) was chosen, which contains two proteins Tag 1-PD-L1 and Tag 2-PD-1, and two antibodies Anti-Tag1-Eu^3+ and Anti-Tag2-XL 665. The principle of detection was: Anti-tag1-Eu^3+ was used as the donor of HTRF, and Anti-Tag2-XL 665 was used as the acceptor of HTRF. When Tag 1-PD-L1 interacts with Tag 2-PD-1, the added HTRF donor and the acceptor are close to each other. After the donor has received the excitation energy, part of the energy was transferred to the acceptor, thus generating 665 nm emission light. […] The inhibitory effect of the compound can be determined by comparing the ratio of 665 nm/620 nm. Tag 1-PD-L1 was diluted with Diluent buffer (cat #62DLBDDF) to a working concentration of 10 nM, Tag 2-PD-1 was diluted with Diluent buffer to a working concentration of 500 nM, Anti-Tag1-Eu^3+ was diluted with detection buffer (cat #62DB1FDG) at a ratio of 1:100, Anti-Tag2-XL 665 was diluted with detection buffer at a ratio of 1:20, and the compound to be detected was diluted with diluent buffer to a final concentration of 2×. Compound solution (2 μL) was added to each well of a 384-well plate, then Tag 1-PD-L1 (4 μL) and Tag 2-PD-1 (4 μL) were added successively. The mixture was incubated at room temperature for 15 minutes. Then Anti-Tag1-Eu^3+ (5 μL) and Anti-Tag2-XL 665 (5 μL) were added, and the mixture was incubated overnight at room temperature. BioTek Synergy™ Neo2 multifunctional microplate reader was used to detect so as to provide the 665 nm/620 nm ratio. PrismGraphd 5.02 was used to fit the IC50 curve.

T1 sequence (Q9NZQ7 19-238 limits assumed): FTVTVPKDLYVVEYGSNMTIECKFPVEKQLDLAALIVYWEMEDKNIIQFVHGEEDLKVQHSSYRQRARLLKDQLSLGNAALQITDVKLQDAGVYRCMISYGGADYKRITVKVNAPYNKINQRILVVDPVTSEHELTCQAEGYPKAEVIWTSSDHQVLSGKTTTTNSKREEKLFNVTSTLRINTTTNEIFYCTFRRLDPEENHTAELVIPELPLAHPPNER

For `COc1nc(-c2cccc(-c3cccc(Nc4nccc5sc(CN6CC[C@H](C(=O)O)C6)nc45)c3Cl)c2Cl)cc(C)c1CNC[C@@H]1CCC(=O)N1` [Compound 44], the IC50 (as a rule, the concentration at which inhibition is half-maximal) was less than 100 nM. The same measure for `COc1nc(-c2cccc(-c3cccc(Nc4nccc5sc(CN6CC[C@@H](C(=O)O)C6)nc45)c3Cl)c2Cl)cc(C)c1CNC[C@@H]1CCC(=O)N1` [Compound 45]: less than 100 nM. Consider `COc1nc(-c2cccc(-c3cccc(Nc4nccc5sc(CN6CCC7(CNC(=O)C7)C6)nc45)c3Cl)c2Cl)cc(C)c1CNC[C@@H]1CCC(=O)N1` (stereo partly drawn) [Compound 46], for which the IC50 is less than 100 nM. Consider `COc1nc(-c2cccc(-c3cccc(Nc4nccc5sc(CN6CCC[C@@H]6C(=O)O)nc45)c3Cl)c2Cl)cc(C)c1CNC[C@@H]1CCC(=O)N1` [Compound 47], for which the IC50 is less than 100 nM. Take `COc1nc(-c2cccc(-c3cccc(Nc4nccc5sc(CN6C[C@@H](O)C[C@H]6C(=O)O)nc45)c3Cl)c2Cl)cc(C)c1CNC[C@@H]1CCC(=O)N1` [Compound 48]: the IC50 was less than 100 nM. For the molecule `COc1nc(-c2cccc(-c3cccc(Nc4nccc5sc(CN6CCC(C)(C(=O)O)CC6)nc45)c3Cl)c2Cl)cc(C)c1CNC[C@@H]1CCC(=O)N1` [Compound 49], the IC50 was less than 100 nM. Under `COc1nc(-c2cccc(-c3cccc(Nc4nccc5sc(CN[C@H]6CC[C@H](C(=O)O)CC6)nc45)c3Cl)c2Cl)cc(C)c1CNC[C@@H]1CCC(=O)N1` [Compound 50] stands less than 100 nM; under `COc1nc(-c2cccc(-c3cccc(Nc4nccc5sc(CN[C@H]6CC[C@@H](C(=O)O)CC6)nc45)c3Cl)c2Cl)cc(C)c1CNC[C@@H]1CCC(=O)N1` [Compound 51], less than 100 nM.

For `COc1nc(-c2cccc(-c3cccc(Nc4nccc5sc(CN6CCC(CC(=O)O)C6)nc45)c3Cl)c2Cl)cc(C)c1CNC[C@@H]1CCC(=O)N1` (stereo partly drawn) [Compound 52], the IC50 was less than 100 nM. Regarding `COc1nc(-c2cccc(-c3cccc(Nc4nccc5sc(CN6CCC(CC(=O)O)CC6)nc45)c3Cl)c2Cl)cc(C)c1CNC[C@@H]1CCC(=O)N1` [Compound 53], the half-inhibitory concentration (IC50) was less than 100 nM. As to `COc1cc(-c2cccc(-c3cccc(Nc4nccc5sc(CN6CCC(C(=O)O)CC6)nc45)c3Cl)c2Cl)cc(C)c1CNC[C@@H]1CCC(=O)N1` [Compound 55], the IC50 is less than 100 nM. As to `COc1nc(-c2cccc(-c3cccc(Nc4nccc5sc(CN6CCC(C#N)CC6)nc45)c3Cl)c2Cl)cc(C)c1CNC[C@@H]1CCC(=O)N1` [Compound 56], the IC50 was less than 100 nM.
